Key:
[1] = system: Ruminal VFA (rumen fluid); assay: In vitro rumen fluid fermentation test, ratio of VFA in treated to control flasks; parameters: species or system steer; conditions: 16 hours at 38° C
Text: As previously noted, a preferred method for improving milk production in lactating ruminants comprises the oral administration of the virginiamycin type antibiotic A-2315. […] Rumen fluid is obtained from a steer with a surgically-installed fistula opening into the rumen. The steer is maintained on a high-grain ration, the composition of which follows: A sample of rumen fluid is strained through four layers of cheesecloth, and the filtrate is collected. The particulate matter retained by the cheesecloth is resuspended in enough physiological buffer to return it to the original volume of the rumen fluid, and this suspension is strained again. The buffer used has the following composition: The two filtrates are combined and allowed to stand until particulate matter separates to the top. The clear layer is separated, diluted with the same buffer (1:1) and then adjusted to pH 7.0. The diluted rumen fluid (10 ml.) is placed in a 25-ml flask with 40 mg. of the above-described feed, an additional 5 mg. of soybean protein, and the test compound. Four replicate flasks are used per treatment. Two sets of four control flasks each are also employed. A zero-time control and an incubated 16-hour control are used. All test flasks are incubated for 16 hours at 38° C. After incubation, 25 percent metaphosphoric acid (2 ml.) is added to each flask. The samples are allowed to settle, and the supernatant is analyzed by gas chromatography for propionate, acetate, and butyrate compounds. Test compound results are statistically compared with control results.

[2] = system: Ruminal VFA; assay: In vivo ruminal VFA test in fistulated non-lactating lambs; parameters: species or system sheep; conditions: 15 g/ton in feed
Description: Two groups of fistulated lambs are allowed slightly more than their normal feed ration for 17 days. Test compound is administered to one group in the feed on a g/ton basis.
The rumen fluids of both groups of animals are sampled on days 3, 7, 10, 14 and 17 of the treatment period.
The fermentation of the ruminal samples is halted by addition of meta-phosphoric acid. Each sample is diluted, centrifuged at 2000×gravity for 10 minutes; the supernatants are analyzed for volatile fatty acids via the gas chromatographic method of E. S. Erwin, G. J. Marco and E. M. Emery in J. Dairy Sci., 44, 1768 […]. Molar percentages of ruminal volatile fatty acids are calculated, and the effect is measured as a comparison of the molar percentages of propionic acid and butyric acid in treated animals to those in contemporary controls. The results of the test are presented below in Tables II and III.

[3] = system: dairy cows; conditions: all administration rates evaluated; cited from earlier work
[4] = 0.1 mcg per ml diluted rumen fluid
[5] = 0.3 mcg per ml diluted rumen fluid
[6] = 1.0 mcg per ml diluted rumen fluid
[7] = molar percentage of ruminal VFA, 17 days

SMILES | Acetate, ratio of VFA concentration in treated flasks to control flasks [1, 4] | Butyrate, ratio of VFA concentration in treated flasks to control flasks [1, 4] | Propionate, ratio of VFA concentration in treated flasks to control flasks [1, 4] | Total VFA, ratio of concentration in treated flasks to control flasks [1, 4] | Acetate, ratio of VFA concentration in treated flasks to control flasks [1, 5] | Butyrate, ratio of VFA concentration in treated flasks to control flasks [1, 5] | Propionate, ratio of VFA concentration in treated flasks to control flasks [1, 5] | Total VFA, ratio of concentration in treated flasks to control flasks [1, 5] | Acetate, ratio of VFA concentration in treated flasks to control flasks [1, 6] | Butyrate, ratio of VFA concentration in treated flasks to control flasks [1, 6] | Propionate, ratio of VFA concentration in treated flasks to control flasks [1, 6] | Total VFA, ratio of concentration in treated flasks to control flasks [1, 6] | Butyric acid, Increase Relative to Control [2] [%] | Propionic acid, Increase Relative to Control [2] [%] | Butyric acid, Change from Control ([2]; control 11.1) | Propionic acid, Change from Control ([2]; control 26.2) | % Butyric Acid Conc. [2, 7] [%] | % Propionic Acid Conc. [2, 7] [%] | fat-corrected-milk production [3]
CC1=C\[C@@H](O)C[C@@H](O)Cc2nc(co2)C(=O)N[C@H](C)C(=O)O[C@H](C(C)C)[C@H](C)/C=C/C(=O)NC\C=C\1 [A-2315 Factor A] | 0.97 | 1.01 | 1.07 | 1.04 | 0.95 | 1.00 | 1.08 | 1.07 | 0.95 | 1.04 | 1.15 | 1.05 | 21.6 | 18.2 | 2.4 | 4.8 | 13.5 | 31.0 | –
CC[C@@]1([C@@H]2O[C@@H]([C@H]3O[C@@](O)(CO)[C@H](C)C[C@@H]3C)C[C@@H]2C)CC[C@H]([C@]2(C)CC[C@]3(C[C@H](O)[C@@H](C)[C@@H]([C@@H](C)[C@@H](OC)[C@H](C)C(=O)O)O3)O2)O1 [Monensin] | – | – | – | – | – | – | – | – | – | – | – | – | – | – | – | – | – | – | no different from that of non-treated control animals

From patent US4336250A, “Lactation improvement method” (Eli Lilly and Company, priority 1981, dated 1982)
